Source: the NIST ThermoML archive (doi:10.1021/je700542v)
Where “and” joins values, the source holds several entries; their conditions need not be identical. Identical values can stand only once. Numbers after ± are expanded uncertainties.

Details: Crystal

[Cu+2].[F-].[F-] [copper difluoride]
Details	vapor or sublimation pressure
881 K	2.188e-05 ± 2.2e-06 kPa
886 K	2.951e-05 ± 3e-06 kPa
895 K	4.365e-05 ± 4.4e-06 kPa
896 K	3.715e-05 ± 3.7e-06 kPa and 4.365e-05 ± 4.4e-06 kPa
897 K	4.365e-05 ± 4.4e-06 kPa
900 K	4.365e-05 ± 4.4e-06 kPa
901 K	5.129e-05 ± 5.1e-06 kPa
902 K	5.129e-05 ± 5.1e-06 kPa
903 K	5.888e-05 ± 5.9e-06 kPa
906 K	5.888e-05 ± 5.9e-06 kPa
908 K	5.888e-05 ± 5.9e-06 kPa
909 K	8.128e-05 ± 8.1e-06 kPa
911 K	6.607e-05 ± 6.6e-06 kPa
912 K	8.912e-05 ± 8.9e-06 kPa
913 K	7.413e-05 ± 7.4e-06 kPa
914 K	8.128e-05 ± 8.2e-06 kPa
915 K	8.912e-05 ± 8.9e-06 kPa and 7.413e-05 ± 7.4e-06 kPa
918 K	7.413e-05 ± 7.4e-06 kPa
919 K	0.0001023 ± 1e-05 kPa
921 K	0.0001175 ± 1.2e-05 kPa
922 K	0.0001023 ± 1e-05 kPa and 9.55e-05 ± 9.6e-06 kPa
924 K	0.0001175 ± 1.2e-05 kPa
925 K	0.0001096 ± 1.1e-05 kPa
928 K	0.0001175 ± 1.2e-05 kPa
929 K	0.0001318 ± 1.3e-05 kPa
930 K	0.0001318 ± 1.3e-05 kPa and 0.0001479 ± 1.5e-05 kPa and 0.0001622 ± 1.6e-05 kPa
931 K	0.0001096 ± 1.1e-05 kPa
932 K	0.0001622 ± 1.6e-05 kPa
934 K	0.0001479 ± 1.5e-05 kPa
939 K	0.0001905 ± 1.9e-05 kPa and 0.0001778 ± 1.8e-05 kPa
940 K	0.0001905 ± 1.9e-05 kPa and 0.0002188 ± 2.2e-05 kPa
941 K	0.0001778 ± 1.8e-05 kPa
942 K	0.0002042 ± 2e-05 kPa
943 K	0.0002042 ± 2e-05 kPa
944 K	0.0001905 ± 1.9e-05 kPa
948 K	0.0002512 ± 2.5e-05 kPa and 0.0002344 ± 2.3e-05 kPa
949 K	0.0002512 ± 2.5e-05 kPa
950 K	0.000309 ± 3.1e-05 kPa
952 K	0.0002818 ± 2.8e-05 kPa and 0.000263 ± 2.6e-05 kPa
953 K	0.0002818 ± 2.8e-05 kPa
955 K	0.000309 ± 3.1e-05 kPa
956 K	0.0002951 ± 3e-05 kPa and 0.0002818 ± 2.8e-05 kPa
959 K	0.0003715 ± 3.7e-05 kPa and 0.0003548 ± 3.6e-05 kPa
960 K	0.0003802 ± 3.8e-05 kPa
961 K	0.0004365 ± 4.4e-05 kPa
964 K	0.0004266 ± 4.3e-05 kPa
965 K	0.0003802 ± 3.8e-05 kPa and 0.0004074 ± 4.1e-05 kPa
969 K	0.0005012 ± 5e-05 kPa [middle of 4 runs]
970 K	0.0005888 ± 5.9e-05 kPa
973 K	0.0005495 ± 5.5e-05 kPa and 0.0005129 ± 5.1e-05 kPa
974 K	0.0005129 ± 5.1e-05 kPa
976 K	0.0006166 ± 6.2e-05 kPa
978 K	0.0006607 ± 6.6e-05 kPa
979 K	0.0006607 ± 6.6e-05 kPa and 0.0007413 ± 7.4e-05 kPa
982 K	0.0006607 ± 6.6e-05 kPa
983 K	0.0007413 ± 7.4e-05 kPa
984 K	0.0006761 ± 6.8e-05 kPa
986 K	0.0008128 ± 8.1e-05 kPa and 0.0008318 ± 8.3e-05 kPa
988 K	0.0008318 ± 8.3e-05 kPa
989 K	0.0007943 ± 7.9e-05 kPa
990 K	0.0008511 ± 8.5e-05 kPa
992 K	0.0009772 ± 9.8e-05 kPa
993 K	0.001023 ± 0.00021 kPa
996 K	0.001122 ± 0.00023 kPa and 0.001097 ± 0.00022 kPa
998 K	0.001122 ± 0.00023 kPa and 0.001023 ± 0.00021 kPa
999 K	0.001097 ± 0.00022 kPa
1002 K	0.001288 ± 0.00027 kPa
1003 K	0.00123 ± 0.00026 kPa
1005 K	0.001445 ± 0.00031 kPa and 0.001412 ± 0.0003 kPa
1006 K	0.001412 ± 0.0003 kPa
1007 K	0.001349 ± 0.00029 kPa
1008 K	0.001445 ± 0.00031 kPa
1011 K	0.001698 ± 0.00038 kPa
1013 K	0.00182 ± 0.00041 kPa
1014 K	0.001862 ± 0.00042 kPa
1015 K	0.001906 ± 0.00043 kPa and 0.001778 ± 0.0004 kPa
1016 K	0.001738 ± 0.00039 kPa
1020 K	0.002188 ± 0.00051 kPa and 0.001995 ± 0.00046 kPa
1023 K	0.002455 ± 0.00059 kPa
1024 K	0.002455 ± 0.00059 kPa
1025 K	0.00257 ± 0.00062 kPa and 0.002455 ± 0.00059 kPa and 0.002239 ± 0.00053 kPa
1030 K	0.00263 ± 0.00064 kPa
1032 K	0.00309 ± 0.00077 kPa
1033 K	0.003162 ± 0.00079 kPa
1051 K	0.005129 ± 0.0014 kPa

[Ag+].[F-] [silver fluoride]
Details	vapor or sublimation pressure
880 K	5.754e-05 ± 5.8e-06 kPa
891 K	5.248e-05 ± 5.3e-06 kPa
894 K	7.763e-05 ± 7.8e-06 kPa
897 K	7.763e-05 ± 7.8e-06 kPa
904 K	8.318e-05 ± 8.3e-06 kPa
910 K	0.0001549 ± 1.6e-05 kPa and 9.772e-05 ± 9.8e-06 kPa and 0.0001047 ± 1e-05 kPa
912 K	0.0001047 ± 1e-05 kPa
913 K	0.0001349 ± 1.4e-05 kPa
914 K	0.0001549 ± 1.6e-05 kPa
917 K	0.0001549 ± 1.6e-05 kPa
920 K	0.0002291 ± 2.3e-05 kPa and 0.0001549 ± 1.6e-05 kPa and 0.000166 ± 1.7e-05 kPa
921 K	0.0001738 ± 1.7e-05 kPa
925 K	0.000166 ± 1.7e-05 kPa
928 K	0.0002344 ± 2.3e-05 kPa
929 K	0.000195 ± 2e-05 kPa and 0.0002089 ± 2.1e-05 kPa
931 K	0.0001738 ± 1.7e-05 kPa and 0.0002512 ± 2.5e-05 kPa
933 K	0.0002089 ± 2.1e-05 kPa
936 K	0.0002692 ± 2.7e-05 kPa
938 K	0.0002692 ± 2.7e-05 kPa
939 K	0.0003715 ± 3.7e-05 kPa
941 K	0.0002399 ± 2.4e-05 kPa
942 K	0.0002692 ± 2.7e-05 kPa
947 K	0.0004074 ± 4.1e-05 kPa
948 K	0.000309 ± 3.1e-05 kPa and 0.0004266 ± 4.3e-05 kPa
949 K	0.0005248 ± 5.3e-05 kPa and 0.0003467 ± 3.5e-05 kPa and 0.0003715 ± 3.7e-05 kPa
955 K	0.0003715 ± 3.7e-05 kPa
956 K	0.0004266 ± 4.3e-05 kPa
958 K	0.0005012 ± 5e-05 kPa and 0.0004677 ± 4.7e-05 kPa
965 K	0.000537 ± 5.4e-05 kPa and 0.0005012 ± 5e-05 kPa
966 K	0.0006918 ± 6.9e-05 kPa
967 K	0.0006761 ± 6.8e-05 kPa
968 K	0.0008913 ± 8.9e-05 kPa
974 K	0.0006456 ± 6.5e-05 kPa
975 K	0.0006761 ± 6.8e-05 kPa
977 K	0.0007244 ± 7.2e-05 kPa and 0.0007763 ± 7.8e-05 kPa
978 K	0.0008511 ± 8.5e-05 kPa
979 K	0.0008913 ± 8.9e-05 kPa
984 K	0.001047 ± 0.00021 kPa
985 K	0.000871 ± 8.7e-05 kPa and 0.000912 ± 9.1e-05 kPa and 0.0009772 ± 9.8e-05 kPa
986 K	0.001445 ± 0.00031 kPa
987 K	0.0008913 ± 8.9e-05 kPa
990 K	0.001175 ± 0.00024 kPa
994 K	0.001097 ± 0.00022 kPa and 0.001175 ± 0.00024 kPa
995 K	0.001698 ± 0.00038 kPa
996 K	0.001349 ± 0.00029 kPa and 0.001071 ± 0.00022 kPa
1000 K	0.001479 ± 0.00032 kPa and 0.001585 ± 0.00035 kPa
1004 K	0.001445 ± 0.00031 kPa
1005 K	0.00123 ± 0.00026 kPa
1008 K	0.002239 ± 0.00053 kPa
1010 K	0.001862 ± 0.00042 kPa
1012 K	0.00166 ± 0.00037 kPa and 0.001778 ± 0.0004 kPa
1013 K	0.001995 ± 0.00046 kPa and 0.001412 ± 0.0003 kPa
1014 K	0.001738 ± 0.00039 kPa
1017 K	0.00263 ± 0.00064 kPa
1019 K	0.002399 ± 0.00057 kPa
1022 K	0.002089 ± 0.00048 kPa and 0.002239 ± 0.00053 kPa
1025 K	0.002344 ± 0.00056 kPa
1026 K	0.001995 ± 0.00046 kPa
1031 K	0.002455 ± 0.00059 kPa and 0.00263 ± 0.00064 kPa
1034 K	0.00257 ± 0.00062 kPa
1036 K	0.003311 ± 0.00083 kPa
1037 K	0.003548 ± 0.0009 kPa
1040 K	0.00309 ± 0.00077 kPa and 0.003311 ± 0.00083 kPa
1049 K	0.003715 ± 0.00095 kPa and 0.003981 ± 0.001 kPa
1057 K	0.004467 ± 0.0012 kPa and 0.004786 ± 0.0013 kPa
